# Assay results as given in patent US12287338B2, “Method and compositions for predicting anti-cancer efficacy of compounds targeting apoptosis pathway” (Ascentage Pharma (Suzhou) Co., Ltd., priority 2020, dated 2025).
# Columns and labels:
# Type in all cases: cell-based
# [1] = molecular target: T1, Bcl-xL:BIM and Bcl-2:BIM complex (Homo sapiens, UniProt Q07817); assay: Bcl-2:BIM and Bcl-xL:BIM complex analysis by MSD advanced ELISA in Toledo cells; conditions: Toledo and RS4; 11 cell lines (FIGS. 4A, 4B), 24 hours
# T1 construct: A diffuse large B cell lymphoma line, Toledo, and an acute lymphocytic leukemia line, RS4; endogenous in cells; host or cells: Toledo
# T1 sequence (Q07817 whole entry, one chain of several): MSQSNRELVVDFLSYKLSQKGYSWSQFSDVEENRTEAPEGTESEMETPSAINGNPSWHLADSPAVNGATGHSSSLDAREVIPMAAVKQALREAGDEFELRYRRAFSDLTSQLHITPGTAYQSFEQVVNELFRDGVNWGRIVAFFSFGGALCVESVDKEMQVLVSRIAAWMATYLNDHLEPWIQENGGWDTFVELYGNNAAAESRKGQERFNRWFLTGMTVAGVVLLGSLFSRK
# Procedure: (§1) A diffuse large B cell lymphoma line, Toledo, and an acute lymphocytic leukemia line, RS4; 11, were chosen for the study. Cells were treated for 24 hours with Compound B4 or ABT-737 at indicated concentrations (0.025 uM, 0.04 uM and 0.06 uM, respectively) and harvested for complex analysis. Both Bcl-2:BIM and Bcl-xL:BIM complex were analyzed using MSD advanced ELISA methods.
# [2] = system: Bcl-xL:BIM and Bcl-2:BIM complex; assay: as above; conditions: Toledo cell line, 24 hours, 0.025, 0.04 and 0.06 uM
# Procedure: as §1
# [3] = system: Bcl-xL:BIM and Bcl-2:BIM complex; assay: Bcl-2:BIM and Bcl-xL:BIM complex analysis by MSD advanced ELISA in RS4; 11 cells; conditions: 11 cell line, 24 hours, 0.025, 0.04 and 0.06 uM
# Procedure: as §1
smiles,measurement,setting,value
"Cc1c(S(C)(=O)=O)c(-c2cc(F)cc(N3CCN(c4ccc(NS(=O)(=O)c5ccc(N[C@H](CCN6CCC(C(=O)O)CC6)CSc6ccccc6)c(S(=O)(=O)C(F)(F)F)c5)cc4)CC3)c2)c(-c2ccc(Cl)cc2)n1C(C)C [Compound B4, (R)-1-(3-(4-(N-(4-(4-(3-(2-(4-chlorophenyl)-1-isopropyl-5-methyl-4-(methylsulfonyl)-1H-pyrrol-3-yl)-5-fluorophenyl)piperazin-1-yl)phenyl)sulfamoyl)-2-(trifluoromethylsulfonyl)phenylamino)-4-(phenylthio)butyl)piperidine-4-carboxylic acid]",disruption of Bcl-xL:BIM complex compared with ABT-737,[1],disrupted Bcl-xL:BIM complex more intensely than ABT-737
same,disruption of Bcl-xL:BIM vs Bcl-2:BIM complex,[2],more potently disrupted Bcl-xL:BIM than Bcl-2:BIM complex
same,disruption of Bcl-xL:BIM vs Bcl-2:BIM complex,[3],more potently disrupted Bcl-xL:BIM than Bcl-2:BIM complex
